Laboratory results as given in patent publication US20230056135A1, “MONOMER AND MULTIMERIC ANTI-HBV AGENTS” (priority 2018, published 2023).
Where two headings read alike, the source gives them in different places.

Legend:
HepG2 cells = assay: Cellular toxicity assay in HepG2 cells; format: cell-based; settings: HepG2 cells; read-out: Cytotoxicity; CC50 (μM) HepG2
Procedure: (§1) The toxicity of the compounds was assessed in Vero, human PBM, CEM (human lymphoblastoid), MT-2, and HepG2 cells, as described previously (see Schinazi R. F., Sommadossi J.-P., Saalmann V., Cannon D. L., Xie M.-Y., Hart G. C., Smith G. A. & Hahn E. F. Antimicrob. Agents Chemother. 1990, 34, 1061-67). Cycloheximide was included as positive cytotoxic control, and untreated cells exposed to solvent were included as negative controls. The cytotoxicity IC50 was obtained from the concentration-response curve using the median effective method described previously (see Chou T.-C. & Talalay P. Adv. Enzyme Regul. 1984, 22, 27-55; Belen'kii M. S. & Schinazi R. F. Antiviral Res. 1994, 25, 1-11).

human PBM = assay: Cellular toxicity assay in human PBM cells; format: cell-based; settings: human PBM cells; read-out: Cytotoxicity; CC50 (μM) PBM
Procedure: as §1

wild type HBV = assay: Anti-HBV assay in AD-38 cell line (HBV in culture supernatant); format: cell-based; settings: for EC50: read-out: Anti-HBV activity EC50; for EC90: read-out: Anti-HBV activity EC90
Procedure: The anti-HBV activity of the compounds was determined by treating the AD-38 cell line carrying wild type HBV under the control of tetracycline (see Ladner S. K., Otto M. J., Barker C. S., Zaifert K., Wang G. H., Guo J. T., Seeger C. & King R. W. Antimicrob. Agents Chemother. 1997, 41, 1715-20). Removal of tetracycline from the medium [Tet (−)] results in the production of HBV. The levels of HBV in the culture supernatant fluids from cells treated with the compounds were compared with that of the untreated controls. Control cultures with tetracycline [Tet (+)] were also maintained to determine the basal levels of HBV expression. 3TC was included as positive control.
The median effective concentrations (EC50) ranges of several of the compounds described herein against HBV are shown in Table 3: […]

[1] = Cellular toxicity assay in Vero cells; format: cell-based; settings: African green monkey
Procedure: as §1

[2] = Cellular toxicity assay in HepG2 cells; format: cell-based; settings: human
Procedure: as §1

[3] = Cellular toxicity assay in human PBM cells; format: cell-based
Procedure: as §1

[4] = Cellular toxicity assay in CEM cells; format: cell-based, human; settings: human
Procedure: as §1

Glutathione levels (GSH) = assay: Glutathione levels in Huh7 cells (GSH-Glo Glutathione Assay); format: cell-based; settings: 10 μM positive control
Procedure: Glutathione levels (GSH) were measured in Huh7 cells after 22 h treatment with 10 μM CAMs (GSH-Glo™ Glutathione Assay—Promega). Treatment of Huh7 with 10 μM positive control, L-buthionine-sulfoximine, reduced cellular GSH levels by 58% (data not shown); Samples were tested in triplicates.

[5] = Vero cells, read-out: Cytotoxicity, CC50 (μM) VERO
[6] = HepG2 cells, read-out: Cytotoxicity, CC50 (μM) HepG2
[7] = human, human PBM cells, read-out: Cytotoxicity, CC50 (μM) PBM
[8] = CEM lymphoblastoid cells, CEM cells, read-out: Cytotoxicity, CC50 (μM) CEM
[9] = Hepatitis B virus, AD-38 cell line, Tet (-)

| Compound | CC50 [1, 5] [µM] | CC50 [2, 6] [µM] | CC50 [3, 7] [µM] | CC50 [4, 8] [µM] | EC50 (wild type HBV; [9]) [µM] | EC90 (wild type HBV; [9]) [µM] | other results |
| --- | --- | --- | --- | --- | --- | --- | --- |
| Cc1c(C(=O)C(=O)NCc2cn(CCOCCOCCOCC(CO)COCCOCCOCCn3cc(CNC(=O)C(=O)c4c(C)c(C(=O)Nc5ccc(F)c(F)c5)n(C)c4C)nn3)nn2)c(C)n(C)c1C(=O)Nc1ccc(F)c(F)c1 [Compound 101, 4,4′-(2,2′-((((11-(Hydroxymethyl)-3,6,9,13,16,19-hexaoxahenicosane-1,21-diyl)bis(1H-1,2,3-triazole-1,4-diyl))bis(methylene))bis(azanediyl))bis(2-oxoacetyl))bis(N-(3,4-difluorophenyl)-1,3,5-trimethyl-1H-pyrrole-2-carboxamide)] |  |  |  |  |  |  | CC50 (HepG2 cells): > 100 µM; CC50 (human PBM): > 100 µM; EC50 (wild type HBV; AD-38 cell line, Tet (-)): 0.01 to 0.1 µM |
| Cc1c(C(=O)C(=O)NCCCCO[P@@](=O)(N[C@@H](C)C(=O)OC(C)C)Oc2ccccc2)c(C)n(C)c1C(=O)Nc1ccc(F)c(F)c1 [Compound 58, Isopropyl ((S)-(4-(2-(5-((3,4-difluorophenyl)carbamoyl)-1,2,4-trimethyl-1H-pyrrol-3-yl)-2-oxoacetamido)butoxy)(phenoxy)phosphoryl)-L-alaninate] | 12 | 29 |  |  |  |  | CC50 ([3]; human PBM cells, read-out: Cytotoxicity, CC50 (μM) PBM): 7 µM; CC50 ([4]; CEM cells, read-out: Cytotoxicity, CC50 (μM) CEM): 10 µM; EC50 (wild type HBV; Hepatitis B virus): 0.1 to 1 µM; EC90 (wild type HBV; Hepatitis B virus): 1 to 10 µM |
| Fc1ccc(C2N=C(c3ccccn3)NC(CN3CCOCC3)=C2C#CC2CC2)c(Cl)c1 (stereo not shown) [Compound 8, 4-((6-(2-Chloro-4-fluorophenyl)-5-(cyclopropylethynyl)-2-(pyridin-2-yl)-3,6-dihydropyrimidin-4-yl)methyl)morpholine] | 49 | 36 | 62 | 20 | 0.1 to 1 | 0.1 to 1 |  |
| Cc1c(C(=O)C(=O)NCCCN(CCCNC(=O)C(=O)c2c(C)c(C(=O)Nc3ccc(F)c(F)c3)n(C)c2C)CCCNC(=O)C(=O)c2c(C)c(C(=O)Nc3ccc(F)c(F)c3)n(C)c2C)c(C)n(C)c1C(=O)Nc1ccc(F)c(F)c1 [Compound 16a, 4,4′,4″-(2,2′,2″-((Nitrilotris(propane-3,1-diyl))tris(azanediyl))tris(2-oxoacetyl))tris(N-(3,4-difluorophenyl)-1,3,5-trimethyl-1H-pyrrole-2-carboxamide)] | 9 | > 100 | > 100 | > 100 | 0.1 to 1 | 1 to 10 |  |
| CCOC(=O)C1=C(CNCc2cn(CCCCCCCCn3cc(CNCC4=C(C(=O)OCC)C(c5ccc(F)cc5Br)N=C(c5nccs5)N4)nn3)nn2)NC(c2nccs2)=NC1c1ccc(F)cc1Br (stereo not shown) [Compound 17c, Diethyl 6,6′-((((octane-1,8-diylbis(1H-1,2,3-triazole-1,4-diyl))bis(methylene))bis-(azanediyl))bis(methylene))bis(4-(2-bromo-4-fluorophenyl)-2-(thiazol-2-yl)-1,4-dihydropyrimidine-5-carboxylate)] | > 100 | 38.5 | 11 | 7.1 | 1 to 10 | 1 to 10 |  |
| Fc1ccc(C2N=C(c3nccs3)NC(CN3CCOCC3)=C2C#CC2CC2)c(Br)c1 (stereo not shown) [Compound 17, 4-((6-(2-Bromo-4-fluorophenyl)-5-(cyclopropylethynyl)-2-(thiazol-2-yl)-3,6-dihydropyrimidin-4-yl)methyl)morpholine] | 23 | 81 | 19 | 17 | 0.01 to 0.1 | 0.1 to 1 |  |
| O=C(Nc1ccc(F)c(Cl)c1)N1[C@@H]2CC[C@H]1c1c(-c3cscn3)n[nH]c1C2 [Compound 33, (4S,7R)—N-(3-Chloro-4-fluorophenyl)-3-(thiazol-4-yl)-1,4,5,6,7,8-hexahydro-4,7-epiminocyclo hepta[c]pyrazole-9-carboxamide] |  |  |  |  | 0.1 to 1 | 1 to 10 | CC50 [1]: 61 µM; CC50 [2]: 19 µM; CC50 ([3]; human): 32 µM; CC50 [4]: 32 µM |
| Cc1c(C(=O)C(=O)NCCCCCCCCO)c(C)n(C)c1C(=O)Nc1ccc(F)c(F)c1 [Compound 60, N-(3,4-Difluorophenyl)-4-(2-(8-hydroxyoctylamino)-2-oxoacetyl)-1,3,5-trimethyl-1H-pyrrole-2-carboxamide] | 14 | 63 | 36 | 4 | 0.01 to 0.1 | 0.1 to 1 |  |
| Cc1c(C(=O)C(=O)NCCCB(O)O)c(C)n(C)c1C(=O)Nc1ccc(F)c(F)c1 [Compound 64, (3-(2-(5-((3,4-Difluorophenyl)carbamoyl)-1,2,4-trimethyl-1H-pyrrol-3-yl)-2-oxoacetamido)propyl)boronic acid] | 76 | 98 | 62 | 26 | 0.01 to 0.1 | 0.01 to 0.1 |  |
| CCOC(=O)C1=C(CNCc2cn(CCCCCCCCCCCCn3cc(CNC(=O)C(=O)c4c(C)c(C(=O)Nc5ccc(F)c(F)c5)n(C)c4C)nn3)nn2)NC(c2nccs2)=NC1c1ccc(F)cc1Br (stereo not shown) [Compound 23, Ethyl 4-(2-bromo-4-fluorophenyl)-6-((((1-(12-(4-((2-(5-((3,4-difluorophenyl)-carbamoyl)-1,2,4-trimethyl-1H-pyrrol-3-yl)-2-oxoacetamido)methyl)-1H-1,2,3-triazol-1-yl)dodecyl)-1H-1,2,3-triazol-4-yl)methyl)amino)methyl)-2-(thiazol-2-yl)-1,4-dihydropyrimidine-5-carboxylate] | > 100 | 63 | > 100 | 14 | 0.01 to 0.1 | 0.1 to 1 |  |
| 4,4′-(2,2′-(((Tetradecane-1,14-diylbis(1H-1,2,3-triazole-1,4-diyl))bis(methylene)) bis(azanediyl)) bis(2-oxoacetyl))bis(N-(3,4-difluorophenyl)-1,3,5-trimethyl-1H-pyrrole-2-carboxamide) [Compound 80] |  |  |  |  |  |  | CC50 (HepG2 cells): > 100 µM; CC50 (human PBM): > 100 µM; EC50 (wild type HBV; AD-38 cell line, Tet (-)): 0.001 to 0.01 µM |
| Cc1c(C(=O)C(=O)NCCCB2OC3CC4CC(C4(C)C)C3(C)O2)c(C)n(C)c1C(=O)Nc1ccc(F)c(F)c1 (stereo not shown) [Compound 62, N-(3,4-difluorophenyl)-1,3,5-trimethyl-4-(2-oxo-2-((3-(3a,5,5-trimethylhexahydro-4,6-methanobenzo[d][1,3,2]dioxaborol-2-yl)propyl)amino)acetyl)-1H-pyrrole-2-carboxamide] | 7 | 6 | 13 | 4 | 0.01 to 0.1 | 0.01 to 0.1 |  |
| CCOC(=O)C1=C(CNCc2cn(CCOCCOCCOCCOCCOCCn3cc(CNC(=O)C(=O)c4c(C)c(C(=O)Nc5ccc(F)c(F)c5)n(C)c4C)nn3)nn2)NC(c2nccs2)=NC1c1ccc(F)cc1Br (stereo not shown) [Compound 50, Ethyl 4-(2-bromo-4-fluorophenyl)-6-((((1-(17-(4-((2-(5-((3,4-difluorophenyl)carbamoyl)-1,2,4-trimethyl-1H-pyrrol-3-yl)-2-oxoacetamido)methyl)-1H-1,2,3-triazol-1-yl)-3,6,9,12,15-pentaoxaheptadecyl)-1H-1,2,3-triazol-4-yl)methyl)amino)methyl)-2-(thiazol-2-yl)-1,4-dihydropyrimidine-5-carboxylate] | > 100 | > 100 | 99 | 27 | 0.1 to 1 | 1 to 10 |  |
| CCCCS(=N)(=O)CCC(N)C(=O)O [L-buthionine-sulfoximine, reference compound] |  |  |  |  |  |  | reduction of cellular GSH levels (Glutathione levels (GSH)): 58% |
| O=S(=O)(NC1CC2=C(C#CC3CC3)C(c3ccc(F)cc3Cl)N=C(c3nccs3)N2C1)C1CC1 (stereo not shown) [Compound 45, N-(3-(2-Chloro-4-fluorophenyl)-4-(cyclopropylethynyl)-1-(thiazol-2-yl)-3,5,6,7-tetrahydro-pyrrolo[1,2-c]pyrimidin-6-yl)cyclopropanesulfonamide] | > 100 | > 100 | 75 | 24 | 0.01 to 0.1 | 0.1 to 1 |  |
